Results from ChEMBL document CHEMBL1142701, “CHMIS-C: a comprehensive herbal medicine information system for cancer” (2005).

The compounds below were run on Panel NCI-60 (60 carcinoma cell lines) (assay: Growth inhibitory activity against human cancer cell line in the NCI's anticancer drug screening program).
Format: functional

SMILES	GI50 [nM]
C=C1C(=O)[C@]23[C@H](O)[C@H]1CC[C@H]2[C@@]12CO[C@]3(O)[C@@H](O)[C@@H]1C(C)(C)CC[C@@H]2O [ORIDONIN]	453
CO[C@H]1C[C@H](O[C@H]2CC[C@]3(C=O)[C@H]4CC[C@]5(C)[C@@H](C6=CC(=O)OC6)CC[C@]5(O)[C@@H]4CC[C@]3(O)C2)O[C@H](C)[C@H]1O [CYMARIN]	39
CC(=O)O[C@H]1C(=O)[C@@]2(C)[C@H]([C@H](OC(=O)c3ccccc3)[C@]3(O)C[C@H](OC(=O)[C@H](O)[C@@H](NC(=O)c4ccccc4)c4ccccc4)C(C)=C1C3(C)C)[C@]1(OC(C)=O)CO[C@@H]1C[C@@H]2O [PACLITAXEL]	0.1
COC(=O)CC(O)(CCC(C)(C)O)C(=O)OC1C(OC)=CC23CCCN2CCc2cc4c(cc2C13)OCO4 (stereo not given)	10
COc1c2cc3c(c1OC)CCN(C)[C@@H]3Cc1ccc(cc1)Oc1cc3c(c(OC)c1OC)CCN(C)[C@@H]3Cc1ccc(cc1)O2 [CYCLEANINE]	17
O=C1N[C@@H]2C(=C[C@H](O)[C@@H](O)[C@H]2O)c2cc3c(c(O)c21)OCO3 [NARCICLASINE]	45
COc1ccc2c(c[n+](C)c3c4cc5c(cc4ccc23)OCO5)c1OC [CHELERYTHRINE CHLORIDE]	188
COc1cc2c[n+](C)c3c4cc5c(cc4ccc3c2cc1OC)OCO5 [NITIDINE CHLORIDE]	125
COc1cc2c(c(OC)c1OC)-c1ccc(OC)c(=O)cc1[C@@H](NC(C)=O)CC2 [COLCHICINE]	1.7
CC(C)c1oc(=O)cc2c1C(O)C1OC(=O)C3(C)C(O)C4OC4C2(C)C13 (stereo not given) [NAGILACTONE]	363
c1c2c(cc3c1OCO3)-c1cc3ccc4c(c3c[n+]1CC2)OCO4 [COPTISINE]	260
Cc1cc(O)c2c(c1)C(=O)c1cc(O)cc(O)c1C2=O [EMODIN]	10000
COC(=O)C(O)C(O)(CCC(C)C)C(=O)OC1C(OC)=CC23CCCN2CCc2cc4c(cc2C13)OCO4 (stereo not given) [OHARRINGTONINE]	10
COc1cccc2c1cc([N+](=O)[O-])c1c(C(=O)O)cc3c(c12)OCO3 [ARISTOLOCHIC ACID]	883
COc1ccc2cc1Oc1ccc(cc1)C[C@@H]1c3cc(c(OC)cc3CCN1C)Oc1c(OC)c(OC)cc3c1[C@H](C2)N(C)CC3 [ISOTETRANDRINE]	10
CC(C=CC=C(C)/C=C/C1=C(C)CCCC1(C)C)=CCO [RETINOL]	28
CC(C)(O)/C=C/C(=O)[C@](C)(O)[C@@H]1C2CC(=O)[C@@]3(C)[C@@H]4C[C@H](O)C(=O)C(C)(C)C4=CC[C@H]3[C@]2(C)C[C@H]1O (stereo not given in full) [ELATERICIN]	23
CC[C@@]1(O)C(=O)OCc2c1cc1n(c2=O)Cc2cc3ccccc3nc2-1 [CAMPTOTHECIN]	10
COc1ccc2cc1Oc1ccc(cc1)C[C@H]1c3cc(c(OC)cc3CCN1C)Oc1c(OC)c(OC)cc3c1[C@H](C2)N(C)CC3 [FANCHININ]	10
C[C@H]1[C@H](C)CC[C@]2(C(=O)O)CC[C@]3(C)C(=CCC4[C@@]5(C)CC[C@H](O)C(C)(C)C5CC[C@]43C)[C@H]12 (stereo not given in full)	10
C=C(CC[C@@H](C(=O)O)[C@H]1CC[C@@]2(C)C3=C(CC[C@]12C)[C@@]1(C)CC[C@H](O)C(C)(C)[C@@H]1CC3)C(C)C [EBURICOIC ACID]	10000
CN1Cc2c(ccc3c2OCO3)C2C(O)Cc3cc4c(cc3C21)OCO4 (stereo not drawn) [CHELIDONINE (+)]	433
O=c1oc2c(O)c(O)cc3c(=O)oc4c(O)c(O)cc1c4c23 [ELLAGIC ACID]	10
C[C@]12CC[C@H]3[C@@H](CC[C@@]4(O)C[C@@H](O)CC[C@]34C=O)[C@]1(O)CC[C@@H]2C1=CC(=O)OC1	94
CCCCCCCC/C=C\CCCCCCCC(=O)O [OLEIC ACID]	10000
COc1cc([C@@H]2c3cc4c(cc3[C@H](O)[C@H]3COC(=O)[C@H]23)OCO4)cc(OC)c1OC [PODOFILOX]	10
O=c1cc(-c2ccc(O)cc2)oc2cc(O[C@@H]3O[C@H](CO)[C@@H](O)[C@H](O)[C@H]3O)cc(O)c12 [APIGETRIN]	76
COC(=O)C[C@](O)(CCCC(C)(C)O)C(=O)O[C@@H]1C(OC)=C[C@]23CCCN2CCc2cc4c(cc2[C@H]13)OCO4 [OMACETAXINE MEPESUCCINATE]	4.4
COc1ccc2c(c1O)-c1c(OC)c(OC)cc3c1C(C2)[N+](C)(C)CC3 (stereo not given) [MENISPERINE]	41
CC(=O)OC(C)(C)/C=C/C(=O)C(C)(O)C1C(O)CC2(C)C3CC=C4C(C[C@@H](O)C(=O)C4(C)C)C3(C)C(=O)CC12C (stereo not given in full) [AMARIN]	10
